{"source": "patent US6500425B1", "about": "“Inhibiting plant pathogens with an antagonistic microorganism(s)” (The United States of America as represented by the …, priority 1988, dated 2002)", "format_in_all_cases": "in vivo", "key": {"Botrytis cinerea [1]": {"tested_on": "Botrytis cinerea", "test": "Botrytis cinerea infection of wounded apples, inorganic salts with or without NRRL Y-18314 (Example XI)", "conditions": "for Percent Infection, Salt Alone (No NRRL Y-18314): salt 2 grams/100 ml (FeSO4 5 millimolar), 10 days after inoculation, mean (standard error)", "experimental": "Golden delicious apples were artificially wounded to a depth of 3 mm using a needle. Each of a first portion of the apples was treated with 50 microliter aliquots of an aqueous solution consisting of NRRL Y-18314 in sterile distilled water at a concentration of 10^7 CEU/ml with each of the salts listed in Table VIII at a concentration of 2 grams/100 ml (with the exception of FeSO4 which was utilized at a 5 millimolar concentration). A second portion of the apples was treated with a 50 microliter aqueous solution of the salts listed in Table VIII at a concentration of 2 grams/100 ml (with the exception of FeSO4 which was utilized in a concentration of 5 millimolar). Also a control was run using only sterile distilled water. Two hours after application of the above solutions, each of the apples was challenged with 20 microliters of a 10^5 spore/ml suspension of Botrytis cinerea. The average percent fruit infection of four trials (8 to 10 replicates per trial) was measured 10 days after inoculation with the Botrytis cinerea.\nValues in parentheses are standard errors of the mean."}, "Botrytis cinerea [2]": {"tested_on": "Botrytis cinerea", "test": "Botrytis cinerea infection of wounded apples, yeasts with or without CaCl2 (Example XII)", "conditions": "CaCl2 2 grams/100 ml, no yeast, seven days, mean (standard error)", "source_text": "Golden Delicious apples were wounded in accordance with the previous example. […] Two hours later the apples were challenged with 20 microliters of a suspension of 10^4 spores/milliliters of Botrytis cinerea. Seven days after inoculation percent infection was observed. […] Values in parentheses are standard errors of the mean."}, "Penicillium expansum": {"tested_on": "Penicillium expansum", "test": "Penicillium expansum lesion diameter on wounded apples (Example XIII)", "conditions": "CaCl2 2 gram/100 ml alone (yeast 0), seven days", "source_text": "Golden delicious apples were artificially wounded in accordance with Example XI.\nThe entries of Table X are the average of 5 replicates per treatment."}, "Penicillium digitatum": {"tested_on": "Penicillium digitatum", "test": "Penicillium digitatum fruit rot of wounded grapefruit, CaCl2 and yeast concentrations (Example XIV)", "experimental": "Grapefruit was wounded as in Example I. The wounded grapefruit were then treated with 50 microliter aliquots of the constituents identified in Tables XI and XII in sterile distilled water. Two hours later the […] were challenged with 20 microliters of a 10^4 spore/milliliter suspension of Penicillium digitatum. The grapefruit were incubated for 5 days at 24° C. before observations were taken."}}}
{"smiles": "[Ca+2].[Cl-].[Cl-]", "note": "[CaCl2, calcium chloride]", "values": [{"measurement": "Percent Infection, Salt Alone (No NRRL Y-18314)", "setting": "Botrytis cinerea [1]", "value": "95.0 (±5.0) %"}, {"measurement": "infection reduction when used alone", "setting": "Botrytis cinerea [1]; used alone, 10 days", "value": "approximately 5%"}, {"measurement": "Average Percent Infection", "setting": "Botrytis cinerea [2]", "value": "100.0 (±0.0) %"}, {"measurement": "Average Lesion Diameter", "setting": "Penicillium expansum; 10^3 spores/ml", "value": 40.4, "unit": "mm"}, {"measurement": "Average Lesion Diameter", "setting": "Penicillium expansum; 10^4 spores/ml", "value": 45.2, "unit": "mm"}, {"measurement": "Average Lesion Diameter", "setting": "Penicillium expansum; 10^5 spores/ml", "value": 47.0, "unit": "mm"}, {"measurement": "Average Percent Fruit Rot", "setting": "Penicillium digitatum; CaCl2 1% alone (yeast 0), series of Table XI", "value": 39.0, "unit": "%"}, {"measurement": "Average Percent Fruit Rot", "setting": "Penicillium digitatum; CaCl2 1% alone (yeast 0), series of Table XII", "value": 63.0, "unit": "%"}, {"measurement": "Average Percent Fruit Rot", "setting": "Penicillium digitatum; CaCl2 2% alone (yeast 0), series of Table XI", "value": 22.8, "unit": "%"}, {"measurement": "Average Percent Fruit Rot", "setting": "Penicillium digitatum; CaCl2 2% alone (yeast 0), series of Table XII", "value": 33.0, "unit": "%"}]}
{"smiles": "O=S(=O)([O-])[O-].[Fe+2]", "note": "[FeSO4]", "values": [{"measurement": "Percent Infection, Salt Alone (No NRRL Y-18314)", "setting": "Botrytis cinerea [1]", "value": "87.5 (±12.5) %"}]}
{"smiles": "[Cl-].[K+]", "note": "[KCl]", "values": [{"measurement": "Percent Infection, Salt Alone (No NRRL Y-18314)", "setting": "Botrytis cinerea [1]", "value": "100.0 (±0.0) %"}]}
{"smiles": "[Cl-].[Cl-].[Mg+2]", "note": "[MgCl2]", "values": [{"measurement": "Percent Infection, Salt Alone (No NRRL Y-18314)", "setting": "Botrytis cinerea [1]", "value": "100.0 (±0.0) %"}]}
{"smiles": "[Cl][Mn][Cl]", "note": "[MnCl2]", "values": [{"measurement": "Percent Infection, Salt Alone (No NRRL Y-18314)", "setting": "Botrytis cinerea [1]", "value": "100.0 (±0.0) %"}]}
{"smiles": "[Cl-].[Na+]", "note": "[NaCl]", "values": [{"measurement": "Percent Infection, Salt Alone (No NRRL Y-18314)", "setting": "Botrytis cinerea [1]", "value": "100.0 (±0.0) %"}]}
